These results are taken from patent US12404289B2 (Gilead Sciences, Inc., priority 2020, dated 2025).

In assay [1] the test system is Respiratory syncytial virus (RSV) strain A2. The assay is described as follows: Hep-2 RSV2 384-well assay (EC50-HEP2-384). To be noted: human respiratory syncytial virus, HEp-2, 96 h, HEp-2 cells, RSV A2, MOI=4, 4 days, Table 3. Type of assay: cell-based.
For assay [2], the system named is SARS-CoV-2. The assay can be described thus: SARS-CoV-2 antiviral assay (A549-hACE2, Nano luciferase). Type of assay: cell-based. To be noted: Severe acute respiratory syndrome coronavirus 2, 48 h, A549-hACE2 cells, SARS-CoV2-Nano, MOI 0.025, 48 h; Table 4; read-out: EC50 SARS CoV2.

SMILES strings stand for the structures.

Regarding `C[C@H](NP(=O)(OC[C@H]1O[C@@](C#N)(c2ccc3c(N)ncnn23)[C@H](O)[C@@H]1O)Oc1ccc(C(C)(C)C)cc1)C(=O)OCC1CC1` (stereo partly drawn) [Example 101a, Cyclopropyl methyl ((((2R,3S,4R,5R)-5-(4-aminopyrrolo[2,1-f][1,2,4]triazin-7-yl)-5-cyano-3,4-dihydroxytetrahydrofuran-2-yl)methoxy)(4-(tert-butyl)phenoxy)phosphoryl)-L-alaninate], the EC50 in assay [1] stood at 41.1 nM; in assay [2] it was 148 nM.

For the compound `CCC(=O)O[C@H]1[C@@H](OC(=O)CC)[C@](C#N)(c2ccc3c(N)ncnn23)O[C@@H]1COP(=O)(N[C@@H](C)C(=O)OCC1CC1)Oc1ccc(C(C)(C)C)cc1` (stereo partly drawn) [Example 103b, (2R,3R,4R,5R)-2-(4-aminopyrrolo[2,1-f][1,2,4]triazin-7-yl)-5-((((4-(tert-butyl)phenoxy)(((S)-1-(cyclopropylmethoxy)-1-oxopropan-2-yl)amino)phosphoryl)oxy)methyl)-2-cyanotetrahydrofuran-3,4-diyl Dipropionate], the EC50 came out at 42 nM in assay [1] and 363 nM in assay [2].

As to `CCC(=O)O[C@H]1[C@@H](OC(=O)CC)[C@](C#N)(c2ccc3c(N)ncnn23)O[C@@H]1COP(=O)(N[C@@H](C)C(=O)OCCC(C)(C)CC)Oc1ccccc1` (stereo partly drawn) [Example 105a, (2R,3R,4R,5R)-2-(4-aminopyrrolo[2,1-f][1,2,4]triazin-7-yl)-2-cyano-5-((((((S)-1-((3,3-dimethylpentyl)oxy)-1-oxopropan-2-yl)amino)(phenoxy)phosphoryl)oxy)methyl)tetrahydrofuran-3,4-diyl Dipropionate], the EC50 in assay [1] turned out to be 54.6 nM; in assay [2], 133 nM.

`CCC(C)(C)CCOC(=O)[C@H](C)NP(=O)(OC[C@H]1O[C@@](C#N)(c2ccc3c(N)ncnn23)[C@H](OC(C)=O)[C@@H]1OC(C)=O)Oc1ccccc1` (stereo partly drawn) [Example 106a, (2R,3R,4R,5R)-2-(4-aminopyrrolo[2,1-f][1,2,4]triazin-7-yl)-2-cyano-5-((((((S)-1-((3,3-dimethylpentyl)oxy)-1-oxopropan-2-yl)amino)(phenoxy)phosphoryl)oxy)methyl)tetrahydrofuran-3,4-diyl Diacetate]: the EC50 in assay [1] amounted to 46.8 nM; in assay [2] it was 83.1 nM.

On to `CCC(=O)O[C@H]1[C@@H](OC(=O)CC)[C@](C#N)(c2ccc3c(N)ncnn23)O[C@@H]1COP(=O)(N[C@@H](C)C(=O)OCC(C)C)Oc1ccc(C(C)(C)C)cc1` (stereo partly drawn) [Example 138, (2R,3R,4R,5R)-2-(4-aminopyrrolo[2,1-f][1,2,4]triazin-7-yl)-5-((((4-(tert-butyl)phenoxy)(((S)-1-isobutoxy-1-oxopropan-2-yl)amino)phosphoryl)oxy)methyl)-2-cyanotetrahydrofuran-3,4-diyl Dipropionate], for which the EC50 in assay [1] was determined as 36.6 nM; in assay [2], 342 nM.

As for `CC(=O)O[C@H]1[C@@H](OC(C)=O)[C@](C#N)(c2ccc3c(N)ncnn23)O[C@@H]1COP(=O)(N[C@@H](C)C(=O)OCC1CCC1)Oc1ccccc1` (stereo partly drawn) [Example 145, (2R,3R,4R,5R)-2-(4-aminopyrrolo[2,1-f][1,2,4]triazin-7-yl)-2-cyano-5-((((((S)-1-(cyclobutylmethoxy)-1-oxopropan-2-yl)amino)(phenoxy)phosphoryl)oxy)methyl)tetrahydrofuran-3,4-diyl Diacetate], the EC50 was found to be 35 nM in assay [1] and 101 nM in assay [2].

`CCC(C)(C)CCOC(=O)[C@H](C)NP(=O)(OC[C@H]1O[C@@](C#N)(c2ccc3c(N)ncnn23)[C@H](O)[C@@H]1O)Oc1ccc(C(C)(C)C)cc1` (stereo partly drawn) [Example 154, 3,3-dimethylpentyl ((((2R,3S,4R,5R)-5-(4-aminopyrrolo[2,1-f][1,2,4]triazin-7-yl)-5-cyano-3,4-dihydroxytetrahydrofuran-2-yl)methoxy)(4-(tert-butyl)phenoxy)phosphoryl)-L-alaninate]: the figures for the EC50 in assay [1] and in assay [2] were 105 nM and 330 nM, respectively.
